Data set [1] concerns BT-474 stem cell spheroids. The experiment in a line: Morphology of BT-474 stem cell spheroids under static conditions. Type of data set: cell-based, human. The following applies: after 72 h treatment, FIG. 5A. Here is the method: FIG. 5. A. Effect of β-O-Gln, C-Gln or ET-18-OCH3 on morphology of JIMT1 stem cell spheroids. B. Effect of β-O-Gln, α-O-Gln or ET-18-OCH3 on morphology of BT-474 stem cell spheroids. BT-474 cancer stem cells were grown for 7 days in ultra low adhesion 6 well plates. The tumorspheres formed were harvested, trypsinised and cell numbers were determined. Equal numbers of cells were dispersed into 48-well plates in mammocult medium and incubation was under static conditions. After spheres were formed, they were incubated with β-O-Gln, α-O-Gln or β-C-Gln (0, 10, or 30 μM) for 6 days. The medium was replenished after 3 days. Images in FIG. 5A were taken at day 0 and 72 h following addition of the compounds. Images in FIG. 5B were taken after 6 days of incubation with the compounds.
The effects of the GAELs, β-O-Gln, α-O-Gln or C-Gln on the growth and viability of tumorspheres growing under static conditions was also investigated. Studies were also conducted with ET-18-OCH3 as a representative of the ALP subclass and an apoptosis inducing compound. Under static conditions a large number of spheroids are formed in control incubations with the vehicle (0.1% EtOH). […] Complete disintegration is observed after incubation with GAELs for 6 days (FIG. 5B). […] Thus, while some disintegration had occurred it was not as comprehensive as those observed with the GAELs.

The subject of data set [2] is BT-474 stem cell tumorspheres. The experiment in a line: Viability of BT-474 stem cell tumorspheres (MTS assay). The class given is cell-based, human. To be noted: 6 days. Here is the method: FIG. 6. Effect of β-O-Gln, α-O-Gln, β-C-Gln and ET-18-OCH3 on the viability of BT-474 stem cell tumorspheres. BT-474 cancer stem cells were grown for 7 days in ultra low adhesion 6 well plates. The tumorspheres formed were harvested, trypsinised and cell numbers were determined. Equal numbers of cells were dispersed into 48-well plates in mammocult medium and incubation was under static conditions. Wells with only medium but no cells were treated in an identical manner to serve as blanks. After spheres were formed, β-O-Gln, α-O-Gln, β-C-Gln or ET-18-OCH3 (0, 10, 20, 30 μM) were added and incubation was for a total of 6 days. At the end of the incubation, the MTS reagent was added to each well and the plates were rotated on a Nutator mixer in a 5% CO2 incubator for 4 h. The absorbance of each well was read at 470 nm. The results are the means±standard deviation of 4 independent determinations.
Cell viability assay: Cell viability was determined by the Cell Titre 96 Aqueous One solution proliferation assay ((MTS assay; Promega) according to the instructions of the manufacturer.
The viability of the material at the end of the incubation was determined using the MTS assay. […] In cells incubated with 10 μM of β-C-Gln, 90% of the cells were not viable. […] In contrast, in experiments with ET-18-OCH3, 10 or 20 μM ET-18-OCH3 had little effect on the viability of BT-474 spheroids and at a concentration of 30 μM viability was around 45% relative to controls. The results of the integrity studies correlate well with the viability studies.
We also investigated the effect of α-O-Galn, β-O-Galn or α-O-Mann on the viability of BT-474 spheroids. The spheroids were incubated with the compounds for 6 days and the viability was assessed by the MTS assay. […] Viability was down to around 10% at 10 μM concentration of the compound. […] At a concentration of 30 μM a significant proportion (26-32%) of the BT-474 cancer stem cells were still viable. The cytotoxic efficacy of GAELs is dependent on the type of sugar moiety and the anomeric form in some instances.

Here are results for one compound from patent US11261210B2, “Glycosylated antitumor ether lipids as novel cancer stem cell cytotoxic agents” (UNIVERSITY OF MANITOBA, priority 2012, dated 2022).

Turning to `CCCCCCCCCCCCCCCCOC[C@H](CO[C@@H]1O[C@H](CO)[C@@H](O)[C@H](O)[C@H]1N)OC` [β-O-Gln, 1-O-hexadecyl-2-O-methyl-3-O-(2′-amino-2′-deoxy-β-D-glucopyranosyl)-sn-glycerol], the spheroid integrity result in data set [1] is “significant disintegration”. In addition, the loss of viability entry in data set [2] (10 μM) is recorded as “about 60%”; in data set [2] (20 or 30 μM) it was “total loss of viability”.
